Source: article PMC7044277 (Nature Communications, 2020)
Values joined by “and” are separate entries in the source; they are usually repeats but may differ in a detail not shown here. Identical values can stand only once.

How the values were obtained:
Assay type in all cases: cell-based
320 non-olfactory GPCRs [1] = molecular target: T1, 320 non-olfactory GPCRs (Homo sapiens, UniProt P46092)
T1 construct: expressed in transfected cells; host or cells: HTLA cells

320 non-olfactory GPCRs [2] = molecular target: T2, 320 non-olfactory GPCRs (Homo sapiens, UniProt P32248)
T2 construct: expressed in transfected cells; host or cells: HTLA cells

320 non-olfactory GPCRs [3] = molecular target: 320 non-olfactory GPCRs (Homo sapiens, UniProt P35372); conditions: receptor OPRM1; replicate values, Fig_4g
320 non-olfactory GPCRs [4] = molecular target: T3, 320 non-olfactory GPCRs (Homo sapiens, UniProt Q8IZF4)
T3 construct: expressed in transfected cells; host or cells: HTLA cells
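For Fold of Basal in this document: compound tested at 1 µM final concentration.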
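For GPCRome agonism screen response in this document: fold over basal response of each receptor without drug.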

T3 sequence (Q8IZF4 22-528): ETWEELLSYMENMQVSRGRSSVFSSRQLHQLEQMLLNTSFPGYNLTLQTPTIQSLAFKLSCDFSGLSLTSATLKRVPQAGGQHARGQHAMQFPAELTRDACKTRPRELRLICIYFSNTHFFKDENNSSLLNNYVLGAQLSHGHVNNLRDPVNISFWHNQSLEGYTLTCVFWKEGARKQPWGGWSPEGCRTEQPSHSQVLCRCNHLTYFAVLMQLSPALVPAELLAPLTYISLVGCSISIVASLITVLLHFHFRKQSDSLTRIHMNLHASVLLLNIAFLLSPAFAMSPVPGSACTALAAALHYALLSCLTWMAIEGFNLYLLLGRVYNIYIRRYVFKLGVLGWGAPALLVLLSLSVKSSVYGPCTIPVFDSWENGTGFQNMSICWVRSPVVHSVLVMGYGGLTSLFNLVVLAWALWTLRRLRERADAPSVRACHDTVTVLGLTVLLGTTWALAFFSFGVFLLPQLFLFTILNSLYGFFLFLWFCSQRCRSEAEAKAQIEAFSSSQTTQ
T2 sequence (P32248 25-378): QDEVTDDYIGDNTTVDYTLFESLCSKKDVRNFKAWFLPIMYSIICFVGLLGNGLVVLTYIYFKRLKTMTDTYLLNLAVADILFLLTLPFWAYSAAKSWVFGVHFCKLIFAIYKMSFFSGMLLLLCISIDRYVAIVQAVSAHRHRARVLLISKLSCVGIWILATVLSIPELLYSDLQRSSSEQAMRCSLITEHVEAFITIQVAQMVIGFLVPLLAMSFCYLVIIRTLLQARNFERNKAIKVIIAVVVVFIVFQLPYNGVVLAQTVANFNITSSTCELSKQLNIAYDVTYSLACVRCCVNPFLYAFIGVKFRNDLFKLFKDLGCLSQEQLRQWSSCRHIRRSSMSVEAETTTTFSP
320 non-olfactory GPCRs (Homo sapiens, UniProt P35372), sequence (P35372 whole entry): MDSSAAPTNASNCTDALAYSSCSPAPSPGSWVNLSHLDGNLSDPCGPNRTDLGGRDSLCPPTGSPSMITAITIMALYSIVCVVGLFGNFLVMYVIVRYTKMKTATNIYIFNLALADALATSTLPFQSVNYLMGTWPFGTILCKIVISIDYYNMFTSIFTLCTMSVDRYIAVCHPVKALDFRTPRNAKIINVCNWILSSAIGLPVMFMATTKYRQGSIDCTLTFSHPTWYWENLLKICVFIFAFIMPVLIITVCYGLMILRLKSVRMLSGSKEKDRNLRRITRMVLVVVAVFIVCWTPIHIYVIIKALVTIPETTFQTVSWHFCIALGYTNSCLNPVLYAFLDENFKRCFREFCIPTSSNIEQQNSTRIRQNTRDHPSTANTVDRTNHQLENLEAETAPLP
T1 sequence (P46092 whole entry): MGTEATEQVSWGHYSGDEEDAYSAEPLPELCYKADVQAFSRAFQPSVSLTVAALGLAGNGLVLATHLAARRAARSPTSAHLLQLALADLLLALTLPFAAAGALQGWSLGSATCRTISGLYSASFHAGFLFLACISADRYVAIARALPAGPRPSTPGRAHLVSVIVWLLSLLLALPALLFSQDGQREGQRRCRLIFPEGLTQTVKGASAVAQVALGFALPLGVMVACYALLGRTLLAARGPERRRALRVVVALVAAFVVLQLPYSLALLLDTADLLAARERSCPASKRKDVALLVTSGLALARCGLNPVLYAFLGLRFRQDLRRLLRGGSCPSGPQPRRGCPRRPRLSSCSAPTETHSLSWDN

`CCOc1cccc2cc(C(C)NCC3(O)CCCCC3)oc12` (stereo not shown) [O4LE6] was tested, and the “Fold of Basal” value (320 non-olfactory GPCRs [1]) was 0.7929 and 1.009 and 0.769 and 1.275, the “Fold of Basal” value (320 non-olfactory GPCRs [2]) was 1.25 and 0.8767 and 0.9045 and 1.727 and the “GPCRome agonism screen response” value (320 non-olfactory GPCRs [3]) was 0.5449 and 0.6973 and 1.0539 and 0.5973. For the same compound, the “Fold of Basal” value (320 non-olfactory GPCRs [4]) was 1.8988 and 1.9 and 1.379.
